Values joined by “and” are separate entries in the source; they are usually repeats but may differ in a detail not shown here. Identical values can stand only once. Like-named read-outs stand apart in the source and are kept apart here.
What was measured:
[1] = Plasma concentrations and pharmacokinetics after intravenous bolus of C3G (NCA and two-compartment model); assay type: in vivo, Wistar rats; conditions: for C0: read-out: C0 (back-extrapolated concentration)
Source text: (§1) Twenty-two male Wistar rats (Rattus Norvegicus, Harlan Italy S.r.l.), of same age (15 weeks), 293–390 g of body weight, were used. The rats were randomly divided into 5 groups, according to the time that elapsed after intravenous administration of the test compound, and one control group. Each time point was represented by four biological replicates. All animals were allowed to acclimate to the animal facility of the University of Trieste for at least 2 week before studies were initiated. The experimental design was vetted and approved by the bioethical committee of the University of Trieste (internal code 140PAS14), according to the provisions of the European Community Council Directive 2010/63/EU[39]. The methods were carried out in accordance with the approved guidelines. The animals (n = 22) were maintained in cages in a room at 23 ± 2 °C, 50–60% humidity with a 12-hour light-dark cycle. The night before the experiment, food was withdrawn from the cages but water was given ad libitum. On the day of the experiment, the rats were anesthetized with intra-peritoneal administration of tiletamine/zolazepam (1:1, 25 mg/kg body weight) and xylazine (10 mg/kg body weight). During anaesthesia (10 min in all cases), the heart and ventilation rate were monitored. The rats were placed on their backs, with the ventral side up and with the legs spread separately on a thermo-isolated support. The penis was extruded by sliding the prepuce downwards. The dorsal penis vein was then seen along both sides of the penis and exactly 10 min after anaesthesia 0.2 mL PBS without (control group) or with (treated group) 668 nmol cyanidin 3-glucoside (C3G) in PBS was injected using a 24-G hypodermic needle. Then the injection site was pressed with a swab for a few seconds, and the glans was encouraged to retract to prevent further bleeding. One min before sacrificing the rats, sodium heparin (0.1 ml, 500 IU) was injected again into the dorsal penis vein, exposed in the same way. […] Blood draining and excision of the organs were carried out according to the literature. In detail, blood was collected from the neck of rats hold upside down, immediately after their decapitation, which happened at the time points sharp. Exsanguination took 5 seconds; laparotomy and excision of the liver and the kidneys took 5 more seconds. The post-decapitation procedures were standardised. Urine was collected through the urinary bladder with a syringe before decapitation. Kidneys, liver and brain were washed with mQ water, immediately frozen in liquid nitrogen and stored at −80 °C.
(§2) Immediately after sampling, 5 mL of blood were transferred into ice-cold (−20 °C), deoxygenated aqueous 95% methanol in a ratio 1:9 (v/v). The urine was weighted and transferred into ice-cold, deoxygenated aqueous 95% methanol at a ratio of 1:9 (w/v). Frozen kidneys, liver and brain were grounded under cryogenic conditions (−196 °C) to 5 μm particles in a CryoMill (Retsch, Germany), using a single 25 mm i. d. steel ball (30 seconds, 25/sec frequency). The pulverized tissue was rapidly transferred (without thawing) into ice-cold, deoxygenated aqueous 95% methanol at a ratio of 1:9 (w/v). Cinnamic acid-d5, as internal standard, was dissolved in the aqueous methanol at concentration of 0.1 mg/L for the monitoring of the extraction protocol in biofluids and tissues.
(§3) All samples were extracted with an orbital shaker for 10 min at room temperature. The methanol extracts were then centrifuged for 5 min at 3600 rpm at 4 °C, decanted under a stream of nitrogen in 50 mL dark glass vessels and stored at −80 °C. Clean-up of extracted samples in methanol was performed by solid phase extraction (SPE), as previously described. Briefly, 5 mL of extracted samples were evaporated on a rotary evaporator and reconstituted in 10 mL of acidified water. Anthocyanins were extracted by solid-phase adsorption onto a hydrophobic matrix (Sep-Pak C18, 0.35 g, Waters, Milford, MA). […]

[2] = Urinary excretion after intravenous C3G; assay type: in vivo, Wistar rats
Source text: as §1, §2, §3

[3] = tested on: endothelial cell membrane; set-up: method as in PMID 22387282; conditions: cited from earlier work
[4] = Liver concentrations and tissue pharmacokinetics after intravenous C3G; assay type: in vivo, Wistar rats
Source text: as §1, §2, §3

[5] = Brain concentrations and tissue pharmacokinetics after intravenous C3G; assay type: in vivo, Wistar rats
Source text: as §1, §2, §3

[6] = male, Wistar, rat, plasma, iv, 668 nmol, non-compartmental analysis
[7] = male, Wistar, rat, plasma, iv, 668 nmol, two-compartment model analysis

OC[C@H]1O[C@@H](Oc2cc3c(O)cc(O)cc3[o+]c2-c2ccc(O)c(O)c2)[C@H](O)[C@@H](O)[C@@H]1O [C3G, Cyanidin-3-O-β-glucoside]
Plasma concentration range with linear plasma/brain correlation ([1]; 0.25–20 min): 19 to 355 nM and 18.78 to 354.84 nM | Time after which half of the compound had been cleared from the plasma ([1]; distribution phase): 18 s | Time window needed to describe complete elimination ([1]; estimate): no more than 1 hour | k el ([1]; male, Wistar, rat, iv, non-compartmental analysis, plasma, i.v. 668 nmol, read-out: λz (first order terminal elimination rate constant) (converted)): 0.00167 s⁻¹ | AUC0-t ([1]; male, Wistar, rat, iv, plasma, i.v. 668 nmol C3G, read-out: AUC0–20 (converted)): 0.0194 µM·h | time to complete elimination ([1]; male, Wistar, rat, plasma, intravenous, 668 nmol, estimate, read-out: Time for complete elimination (5–6 half-lives)): 40 to 50 min | C0 ([1]; male, Wistar, rat, plasma, intravenous, 668 nmol, non-compartmental analysis): 429 nM | half-life ([1]; male, Wistar, rat, plasma, intravenous, 668 nmol, plasma, read-out: Mean half-life): < 8 min | C0 ([1]; male, Wistar, rat, plasma, intravenous, 668 nmol, two-compartment model analysis): 550 nM | MRT ([1]; male, Wistar, rat, plasma, intravenous, 668 nmol, two-compartment model analysis, read-out: MRT (converted)): 9.21 min | MRT ([1]; male, Wistar, rat, plasma, intravenous, 668 nmol, two-compartment model analysis, read-out: MRTP (mean residence time in the peripheral space) (converted)): 6.68 min | AUC(0-inf) [1, 6]: 0.0225 µM·h | Cmax [1, 6]: 355 nM | Tmax [1, 6]: 0.25 min | C0 [1, 6]: 429 nM | clearance ([1]; male, Wistar, rat, plasma, iv, 668 nmol, non-compartmental analysis, read-out: CL (total body clearance)): 490 mL/min | MRT ([1]; male, Wistar, rat, plasma, iv, 668 nmol, non-compartmental analysis, read-out: MRT (converted)): 8.72 min | Vd ([1]; male, Wistar, rat, plasma, iv, 668 nmol, non-compartmental analysis, read-out: Vss): 4.31 L | Vd ([1]; male, Wistar, rat, plasma, iv, 668 nmol, non-compartmental analysis, read-out: Vz): 4.92 L | half-life ([1]; male, Wistar, rat, plasma, iv, 668 nmol, non-compartmental analysis, read-out: t1/2 (terminal elimination half-life)): 6.9 min | half-life ([1]; male, Wistar, rat, plasma, iv, 668 nmol, plasma, i.v. 668 nmol C3G, read-out: Half life): 6.9 min | AUC(0-inf) [1, 7]: 0.0222 µM·h | C0 [1, 7]: 550 nM | MRT ([1]; male, Wistar, rat, plasma, iv, 668 nmol, two-compartment model analysis, read-out: MRT (converted)): 9.22 min | Vd ([1]; male, Wistar, rat, plasma, iv, 668 nmol, two-compartment model analysis, read-out: Vss): 4.58 L | half-life ([1]; male, Wistar, rat, plasma, iv, 668 nmol, two-compartment model analysis, read-out: t1/2e (elimination half-life)): 7.41 min | half-life ([1]; male, Wistar, rat, plasma, iv, 668 nmol, two-compartment model analysis, read-out: t1/2d (distribution half-life)): 0.3 min | concentration at 0.25 min ([1]; male, Wistar, rat, plasma, iv, 0.25 min after i.v. 668 nmol C3G, mean ± SEM n=4): 355 ± 54.2 nM | concentration at 2 min ([1]; male, Wistar, rat, plasma, iv, 2 min after i.v. 668 nmol C3G, mean ± SEM n=4): 93.8 ± 9.01 nM | concentration at 5 min ([1]; male, Wistar, rat, plasma, iv, 5 min after i.v. 668 nmol C3G, mean ± SEM n=4): 72.2 ± 5.47 nM | concentration at 15 min ([1]; male, Wistar, rat, plasma, iv, 15 min after i.v. 668 nmol C3G, mean ± SEM n=4): 17.5 ± 2.04 nM | concentration at 20 min ([1]; male, Wistar, rat, plasma, iv, 20 min after i.v. 668 nmol C3G, mean ± SEM n=4): 18.8 ± 4.06 nM | AUMC ([1]; non-compartmental analysis): 11789.96 nM*min^2 | Residual amount eliminated per min ([1]; per min): ca. 10% | Time for distribution to go to 50% completion ([1]; rat, in vivo): ca. 8 s | Fraction distributed beyond plasma at distribution equilibrium ([1]; steady state): 99.76% | Fraction present in plasma at distribution equilibrium ([1]; steady state): 0.24% | Share of MRT spent in the peripheral space ([1]; two-compartment model): 73.51% | AUMC ([1]; two-compartment model analysis): 12394.67 nM*min^2 | CL (total body clearance) ([1]; two-compartment model analysis): 0.49 L/min | FAUC (AUC peripheral bioavailability, MRTP/MRTC) ([1]; two-compartment model analysis): 2.77 | IC (number of circulations, MRTP/MTTP) ([1]; two-compartment model analysis): 3.55 | MTT (mean transit time; MTTC, mean duration of one visit in central compartment) ([1]; two-compartment model analysis): 0.54 min | MTTp (mean transit time in the peripheral space) ([1]; two-compartment model analysis): 1.91 min | V1 (volume of central compartment) ([1]; two-compartment model analysis): 1.21 L | V2 (volume of peripheral compartment) ([1]; two-compartment model analysis): 3.36 L | a (T0 intercept of distribution kinetics) ([1]; two-compartment model analysis): 442.79 nM | b (T0 intercept of elimination phase) ([1]; two-compartment model analysis): 107.68 nM | k10 ([1]; two-compartment model analysis): 0.41 min^–1 | k12 ([1]; two-compartment model analysis): 1.45 min^–1 | k21 ([1]; two-compartment model analysis): 0.52 min^–1 | α (slope factor) ([1]; two-compartment model analysis): 2.29 min^–1 | β (slope factor) ([1]; two-compartment model analysis): 0.09 min^–1 | Urine concentration ([2]; 0.25 min after i.v. 668 nmol C3G): 0.02 ± 0.01 nmol/g | Urine concentration ([2]; 2 min after i.v. 668 nmol C3G): 2.69 ± 0.82 nmol/g | Urine concentration ([2]; 5 min after i.v. 668 nmol C3G): 20.20 ± 2.61 nmol/g | Injected dose recovered in urine ([2]; 5 min after the injection): 15% | Urine concentration ([2]; 15 min after i.v. 668 nmol C3G): 11.95 ± 6.53 nmol/g | Urine concentration ([2]; 20 min after i.v. 668 nmol C3G): 5.66 ± 1.31 nmol/g | Time frame to pass the endothelial cell membrane [3]: < 1 min | Mean concentration in liver ([4]; 0.25 min after i.v. 668 nmol C3G, mean ± SEM n=4): 56.61 ± 11.79 pmol/g | Mean concentration in liver ([4]; 2 min after i.v. 668 nmol C3G): 19.22 ± 1.99 pmol/g | Mean concentration in liver ([4]; 5 min after i.v. 668 nmol C3G): 20.91 ± 2.61 pmol/g | Mean concentration in liver ([4]; 15 min after i.v. 668 nmol C3G): 11.02 ± 2.24 pmol/g | Mean concentration in liver ([4]; 20 min after i.v. 668 nmol C3G): 5.54 ± 0.33 pmol/g | MTTL (Mean Transit Time in the liver) ([4]; liver): 1.43 min | AUC0-t ([4]; liver, i.v. 668 nmol C3G): 345.3 pmol·min/g and 345.29 pmol·min/g | half-life ([4]; male, Wistar, rat, liver, iv, 668 nmol, read-out: Half-life): 8.15 min | Mean concentration in brain ([5]; 0.25 min after i.v. 668 nmol C3G, mean ± SEM n=4, corrected for residual blood): 40.46 ± 9.67 pmol/g | Mean concentration in brain ([5]; 2 min after i.v. 668 nmol C3G): 7.48 ± 0.79 pmol/g | Mean concentration in brain ([5]; 5 min after i.v. 668 nmol C3G): 7.05 ± 0.55 pmol/g | Mean concentration in brain ([5]; 15 min after i.v. 668 nmol C3G): 2.18 ± 0.58 pmol/g | Mean concentration in brain ([5]; 20 min after i.v. 668 nmol C3G): 2.21 ± 0.44 pmol/g | MTTB (Mean Transit Time in the brain) ([5]; brain): 0.43 min | AUC0-t ([5]; brain, i.v. 668 nmol C3G): 119.9 pmol·min/g and 119.89 pmol·min/g | half-life ([5]; male, Wistar, rat, brain, iv, 668 nmol): 8.8 min | concentration at 15 sec ([5]; male, Wistar, rat, brain, iv, 668 nmol, 15 sec after i.v., read-out: Corresponding brain concentration assuming free diffusion in a water compartment): ~50 nM

From article PMC4786809, “Determination of cyanidin 3-glucoside in rat brain, liver and kidneys by UPLC/MS-MS and its application to a short-term pharmacokinetic study” (Scientific Reports, 2016)
